Key:
Format in all cases: binding
[1] = tested on: human monoclonal antibody CR57
[2] = tested on: human monoclonal antibody CRJB
[3] = tested on: human monoclonal antibody CRJB; remark: listed apart in the source
[4] = tested on: human monoclonal antibody CRJA
[5] = tested on: human monoclonal antibody CRJA; remark: listed apart in the source
[6] = tested on: human monoclonal antibody CR57; remark: listed apart in the source

| Sequence | Binding of CR57 to linear peptide (PEPSCAN-ELISA signal) [1] | Binding of CRJB to linear peptide (PEPSCAN-ELISA signal) [2] | Binding of CRJB (10 μg/ml) to looped/cyclic peptide (PEPSCAN-ELISA signal) [3] | Binding of CRJA (10 μg/ml) to looped/cyclic peptide (PEPSCAN-ELISA signal) [4] | Binding of CRJA to linear peptide (PEPSCAN-ELISA signal) [5] | Binding of CR57 (10 μg/ml) to looped/cyclic peptide (PEPSCAN-ELISA signal) [6] | Binding of CRJB (10 μg/ml) to looped/cyclic peptide (PEPSCAN-ELISA) [3] | Binding of CRJA (10 μg/ml) to looped/cyclic peptide (PEPSCAN-ELISA) [4] | Binding of CR57 (10 μg/ml) to looped/cyclic peptide (PEPSCAN-ELISA) [6] | Binding of human monoclonal antibody CR57 to linear peptide (PEPSCAN-ELISA signal) [1] | Binding of human monoclonal antibody CRJB to linear peptide (PEPSCAN-ELISA signal) [2] | Binding of CRJB to looped/cyclic peptide (PEPSCAN-ELISA signal) [3] | Binding of CRJA to looped/cyclic peptide (PEPSCAN-ELISA signal) [4] | Binding of human monoclonal antibody CRJA to linear peptide (PEPSCAN-ELISA signal) [5] | Binding of CR57 to looped/cyclic peptide (PEPSCAN-ELISA signal) [6] |
| --- | --- | --- | --- | --- | --- | --- | --- | --- | --- | --- | --- | --- | --- | --- | --- |
| IISPSVADLDPYDRS | 83 | 125 | 93 | 106 | 98 | 115 | – | – | – | – | – | – | – | – | – |
| FFNGIILGPDGNVLI | 92 | 143 | – | – | 119 | – | 96 | 100 | 72 | – | – | – | – | – | – |
| ACRAAYNWKMAGDPR | 82 | 116 | 93 | 110 | 93 | 138 | – | – | – | – | – | – | – | – | – |
| FRPTPDACRAAYNWK | 43 | 112 | 88 | 125 | 104 | 90 | – | – | – | – | – | – | – | – | – |
| VVEDEGCTNLSGFSY | 73 | 107 | 66 | 68 | 63 | 79 | – | – | – | – | – | – | – | – | – |
| KRASKGSETCGFVDE | 92 | 106 | – | – | 97 | – | 85 | 101 | 120 | – | – | – | – | – | – |
| HSRVFPSGKCSGVAV | 97 | 118 | 104 | 113 | 111 | 138 | – | – | – | – | – | – | – | – | – |
| KLVPGFGKAYTIFNK | 47 | 114 | – | – | 73 | – | 71 | 71 | 54 | – | – | – | – | – | – |
| VSFRRLSHLRKLVPG | 90 | 111 | – | – | 55 | – | 94 | 99 | 141 | – | – | – | – | – | – |
| VVEELVRKREECLDA | 62 | 108 | – | – | 90 | – | 5 | 59 | 30 | – | – | – | – | – | – |
| TTTFKRKHFRPTPDA | 80 | 108 | 99 | 93 | 76 | 90 | – | – | – | – | – | – | – | – | – |
| PDGNVLIPEMQSSLL | 87 | 129 | – | – | 99 | – | 108 | 112 | 110 | – | – | – | – | – | – |
| RTWNEILPSKGCLRV | 120 | 127 | – | – | 97 | – | 93 | 102 | 107 | – | – | – | – | – | – |
| SSVIPLVHPLADPST | 73 | 104 | – | – | 60 | – | 80 | 45 | 120 | – | – | – | – | – | – |
| RGLYKSLKGACKLKL | 90 | 121 | – | – | 107 | – | 96 | 113 | 96 | – | – | – | – | – | – |
| PLADPSTVFKDGDEA | – | – | – | – | – | – | – | – | – | 99 | 125 | 97 | 97 | 84 | 148 |
| FTCTGVVTEAENYTN | 83 | 125 | 96 | 96 | 91 | 123 | – | – | – | – | – | – | – | – | – |
| GTWVAMQTSNETKWC | 58 | 113 | – | – | 61 | – | 85 | 62 | 71 | – | – | – | – | – | – |
| GMSCDIFTNSRGKRA | 54 | 120 | 78 | 51 | 71 | 79 | – | – | – | – | – | – | – | – | – |
| RSLHSRVFPSGKCSG | 87 | 141 | 93 | 123 | 125 | 102 | – | – | – | – | – | – | – | – | – |
| KDGDEAEDFVEVHLP | – | – | – | – | – | – | – | – | – | 72 | 93 | 71 | 42 | 62 | 71 |
| NFVGYVTTTFKRKHF | 65 | 107 | 98 | 83 | 88 | 92 | – | – | – | – | – | – | – | – | – |
| VRTWNEILPSKGCLR | 90 | 124 | – | – | 105 | – | 98 | 114 | 121 | – | – | – | – | – | – |
| PRLGMSCDIFTNSRG | 72 | 112 | 89 | 96 | 108 | 87 | – | – | – | – | – | – | – | – | – |
| KGCLRVGGRCHPHVN | 68 | 130 | – | – | 108 | – | 91 | 102 | 65 | – | – | – | – | – | – |
| AEDFVEVHLPDVHNQ | – | – | – | – | – | – | – | – | – | 123 | 138 | 90 | 101 | 114 | 117 |
| NVLIPEMQSSLLQQH | 72 | 120 | – | – | 92 | – | 99 | 110 | 97 | – | – | – | – | – | – |
| LVPGFGKAYTIFNKT | 54 | 112 | – | – | 83 | – | 58 | 58 | 87 | – | – | – | – | – | – |
| PTPDACRAAYNWKMA | 99 | 125 | 112 | 136 | 129 | 114 | – | – | – | – | – | – | – | – | – |
| ESLVIISPSVADLDP | 88 | 125 | 65 | 118 | 120 | 99 | – | – | – | – | – | – | – | – | – |
